Experimental findings from patent publication US7473683B2, “Nonpolar thymidine analogs” (The Board of Trustees of the Leland Stanford Junior …, priority 2005, dated 2009) are described below.

The subject of data set [1] is normal and bypass (SOS-induced) polymerases in E. coli. The experiment in a line: bacterial replication assay: bypass efficiency and fidelity of analogs in single-stranded M13 vector passaged through E. coli. The format is cell-based. The note with it: E. coli. The source says:
Bacterial replication assay. The assay for bypass efficiency fidelity is briefly described in the text.
To ascertain the influence of sub-Angstrom size increases on the template coding properties of the T analogs in vivo, we ligated oligonucleotides containing each analog into a single-stranded M13 vector, which were then passaged through E. coli and scored for bypass efficiency and mutagenesis (fidelity) as described. We chose E. coli deficient in AlkB to eliminate the possibility of metabolization of the H analog, which was subsequently found to have no influence on the results when compared with AlkB-proficient cells. Bypass experiments shown in FIG. 7 were performed in a competitive manner, and efficiencies were evaluated by PCR-based quantitation of successfully replicated progeny DNA. SOS-induction of bypass polymerases by prior irradiation of E. coli with ultraviolet light increased trans-analog synthesis approximately 2-fold for all thymine analogs. […] It is noteworthy that the difference between the match and mismatch efficiency increased in cells expressing induced bypass polymerases: L (0.2), B (8.0), I (17.4), implying higher fidelity for the larger isosteres for bypass polymerases, which may contain larger or looser active sites.

Data set [2] concerns DNA Pol I (Klenow fragment, exo-). The data set is described as follows: steady-state kinetics of single nucleotide insertions, thymidine analogues in the template. Format: biochemical, E. coli. The note with it: for Km / Vmax: 37° C.; for Vmax: 10 mM MgCl2, pH 7.5, normalized to lowest enzyme concentration; for rel. efficiency: relative to insertion of dATP opposite T. On the procedure:
In vitro steady-state kinetics. As polymerase substrates we used 28 mer/23 mer template-primer duplexes having the sequence (5′-ACT GXT CTCCCTATAGTGAGTCGTATTA [SEQ ID NO:1])·(5′-TAATACGACTCACTATAGGGAGA [SEQ ID NO:2]). Kinetics were measured at 37° C. in a buffer containing 10 mM Mg^2+. The primer was 5′ end-labeled and was extended by the polymerase in the presence of a single dNTP species over varied concentration and time. Products of single nucleotide insertions were resolved from unreacted primer by 20% denaturing gel electrophoresis, and were quantitated by autoradiography. Details of the kinetics experiments are given in the Supporting Data.
We chose DNA polymerase I (Klenow fragment, exonuclease-deficient) as an ideal candidate for initial study, as it is enzymatically well-characterized among replicative enzymes, and yet is relatively small and acts as a single subunit. We carried out kinetics studies of single nucleotide insertions in the steady state, using a gel electrophoresis-based assay.
Data for single nucleotide insertion kinetics in the steady-state. The enzyme was the Klenow fragment of DNA pol I from E. coli (exonuclease deficient). Methods are as described above.

Data set [3] deals with self-complementary strands (5′-XCGCGCG). The data set is described as follows: dangling end thermal denaturation studies (base stacking) with self-complementary strands. The format is physicochemical. The note with it: dangling residue X in 5′-XCGCGCG. On the procedure: (§1) Thermal Denaturation Studies. After the samples were prepared in melting buffer (1M NaCl, 10 mM phosphate buffer (pH 7.0) with 0.1 mM EDTA), they were heated to 95° C. and allowed to slowly cool at a rate of 1° C./min to 5° C. The melting studies were carried out in Teflon-stoppered 1 cm path length quartz cells on a Varian Cary 1 UV-vis spectophotometer equipped with thermoprogrammer. Absorbance was monitored at 280 nm for stacking and at 260 nm for base pairing. […] The data were analyzed by the melt curve processing program, MeltWin v. 3.0. Melting temperatures (Tm) were determined by computer-fit of the first derivative of absorbance with respect to 1/T. Uncertainty in Tm is estimated at ±0.5° C. based on repetitions of experiments. Free-energy values were derived by two methods: (1) computer-fitting the denaturation data with an algorithm employing linear sloping baselines, using the two-state approximation for melting. Fits were excellent, with χ^−2 values of 10^−6 or better. (2) Van't Hoff thermodynamic parameters were derived from linear plots of 1/Tm vs In[CT] by measuring Tm as a function of concentration.
Sequence Design. We incorporated all five phosphoramidites into three new sequence contexts each for further study of pairing and stacking properties. The first is a self-complementary sequence designed to form a hexamer duplex, with the nonnatural base analogue overhanging (dangling) at the 5′ ends (Table 2). This same sequence context has been used previously in several studies of DNA base stacking. The second and third contexts comprise a pair of 12mer sequences that form duplexes with well-behaved two-state behavior. One strand is pyrimidine-rich, while the other is purine-rich; we substituted each analogue at a central position of each strand to test two widely varied sequence contexts for pairing effects.
Base Stacking. DNA base stacking stability has been correlated with the size of compounds when mono-, bi-, tri-, and tetra-cyclic base analogues were compared. To test this with the present series, which varies in size by a smaller amount, we examined the short self-complementary oligonucleotides by thermal denaturation experiments. The self-complementary duplexes contained the modified nucleosides as a 5′ overhanging base.

The test system of data set [4] is 12-base pair duplex 5′-CTTTTCXTTCTT / 3′-GAAAAGXAAGAA
The experiment in a line: thermal denaturation, base pairing near the center of a 12-base pair duplex. The format is physicochemical. The following applies: pyrimidine- or purine-rich strand, compared to T. On the procedure:
as §1
Sequence Design. We incorporated all five phosphoramidites into three new sequence contexts each for further study of pairing and stacking properties. […]

Setting [5] is: insertion of dATP opposite template base.
Where [6] appears, read: insertion of dCTP opposite template base.
Setting [7] is: insertion of dGTP opposite template base.
Setting [8] is: insertion of dTTP opposite template base.

As for `Cc1ccc(I)cc1I` [I, 2,4-diiodotoluene], the “difference between the match and mismatch efficiency, increase in cells expressing induced bypass polymerases” value in data set [1] (SOS-induced bypass polymerases) is recorded as 17.4. Further, in data set [1] (diminished when bypass polymerases were induced), the single-base deletions entry was “evident”. In data set [2] (setting [5]), the Km is 26 ± 11 µM, the Vmax came out at 1.3 ± 0.2 % · m in^−1 and the rel. efficiency is given as 3.8 × 10^−3. In data set [2] (setting [6]), the Km worked out at 20 ± 8 µM, the Vmax is listed as 0.036 ± 0.001 % · m in^−1 and the rel. efficiency is 1.4 × 10^−4. In addition, in data set [2] (setting [7]), the Km came to 58 ± 18 µM, the Vmax is reported as 0.017 ± 0.001 % · m in^−1 and the rel. efficiency was 2.2 × 10^−5. In data set [2] (setting [8]), the Km was determined as 48 ± 39 µM, the Vmax turned out to be 0.085 ± 0.037 % · m in^−1 and the rel. efficiency is given as 1.4 × 10^−4. Also, in data set [3], the “ΔG°37 (van't Hoff)” value is -10.4 ± 0.2 kcal/mol, the “ΔH° (van't Hoff)” value was -55.7 ± 4.4 kcal/mol, the “ΔS° (van't Hoff)” value is reported as −146 ± 14 cal/K · mol and the “ΔΔG° stacking per base” value is reported as 1.30 kcal/mol. For the same compound, the melting temperature (Tm) in data set [3] (5.0 μM DNA strand, 1M NaCl, 10 mM phosphate buffer (pH 7.0), 0.1 mM EDTA, 280 nm) stood at 53.8 °C. In addition, in data set [3] (curve fits), the “ΔG°37 (fits)” value is -10.2 ± 0.1 kcal/mol. Also, the ΔTm in data set [3] (versus duplex with no dangling residue) was 15.2 °C. In addition, in data set [4], the “pairing stability opposite natural bases” value is given as “least destabilizing”.
